Assay results published in patent US11760754B2, “Heterocyclic mitochondrial activity inhibitors and uses thereof” (UNIVERSITÉ DE MONTRÉAL, priority 2017, dated 2023).

How the values were obtained:
[1] = test system: MLL-AF9 cells; experiment: MLL-AF9 leukemia cell growth inhibition, dose-response viability assay (CellTiterGlo); format: cell-based, murine; conditions: Mus musculus, MLL-AF9, 120 h, read-out: MLL-AF9 EC50
In short: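 Murine MLL-AF9 leukemia cells (female, MSCV MLL-AF9 IRES Puro transduced) were treated with serial compound dilutions from 10 μM to 0.5 nM in duplicates or quadruplicates. Viability read by CellTiterGlo dose-response.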

[2] = test system: OCI-AML3 cells; experiment: OCI-AML3 cell growth inhibition, dose-response viability assay (CellTiterGlo); format: cell-based; conditions: Homo sapiens, OCI-AML-3, 144 h, read-out: AML-3 EC50
In short: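 OCI-AML3 cells seeded, then exposed to compound in serial dilutions from 10 μM to 0.5 nM, in duplicate or quadruplicate. Viability read by CellTiter-Glo.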

| SMILES | EC50 [1] [nM] | EC50 [2] [nM] |
| --- | --- | --- |
| CN(C)C(=O)OCCc1cn(CCCCc2ccc(OCc3coc(/C=C/c4ccc(C(F)(F)F)cc4)n3)cc2)nn1 [Compound 68, (E)-2-(1-(4-(4-((2-(4-(trifluoromethyl)styryl)oxazol-4-yl)methoxy)phenyl)butyl)-1H-1,2,3-triazol-4-yl)ethyl dimethylcarbamate] | 100 to 500 | 500 to 1000 |
| COCCNC(=O)OCCc1cn(CCCCc2ccc(OCc3coc(/C=C/c4ccc(C(F)(F)F)cc4)n3)cc2)nn1 [Compound 69, (E)-2-(1-(4-(4-((2-(4-(trifluoromethyl)styryl)oxazol-4-yl)methoxy)phenyl)butyl)-1H-1,2,3-triazol-4-yl)ethyl (2-methoxyethyl)carbamate] | 100 to 500 | 500 to 1000 |
| CN(C)c1cccc2c(S(=O)(=O)NCCNC(=O)c3ccc(/C=C/c4nc(COc5ccc(CCCCn6ccnn6)cc5)co4)cc3)cccc12 [Compound 72, (E)-4-(2-(4-((4-(4-(1H-1,2,3-triazol-1-yl)butyl)phenoxy)methyl)oxazol-2-yl)vinyl)-N-(2-(5-(dimethylamino)naphthalene-1-sulfonamido)ethyl)benzamide] | 500 to 1000 | 1000 to 10000 |
| FC(F)(F)c1ccc(C2CC2c2nc(COc3ccc(CCCCn4ccnn4)cc3)co2)cc1 (stereo not drawn) [Compound 76, 4-((4-(4-(1H-1,2,3-triazol-1-yl)butyl)phenoxy)methyl)-2-(2-(4-(trifluoromethyl)phenyl)cyclopropyl)oxazole] | 1000 to 10000 | 1000 to 10000 |
| COC(=O)c1coc(COc2ccc(CCCCn3ccnn3)cc2)n1 [Compound 77, Methyl 2-((4-(4-(1H-1,2,3-triazol-1-yl)butyl)phenoxy)methyl)oxazole-4-carboxylate] | > 10000 | 1000 to 10000 |
| CC(C)(C)OC(=O)NCCCCc1ccc(OCc2coc(/C=C/c3ccc(C(F)(F)F)cc3)n2)cc1 [Compound 79, (E)-tert-butyl (4-(4-((2-(4-(trifluoromethyl)styryl)oxazol-4-yl)methoxy)phenyl)butyl) carbamate] | 1000 to 10000 | 1000 to 10000 |
| C(=C\c1nc(COc2ccc(CCCCn3ccnn3)cc2)co1)/c1ccncc1 [Compound 80, (E)-4-((4-(4-(1H-1,2,3-triazol-1-yl)butyl)phenoxy)methyl)-2-(2-(pyridin-4-yl)vinyl) oxazole] | 100 to 500 | 500 to 1000 |
| Fc1cnccc1/C=C/c1nc(COc2ccc(CCCCn3ccnn3)cc2)co1 [Compound 81, (E)-4-((4-(4-(1H-1,2,3-triazol-1-yl)butyl)phenoxy)methyl)-2-(2-(3-fluoropyridin-4-yl)vinyl)oxazole] | 50 to 100 | 50 to 100 |
| C(=C\c1nc(COc2ccc(CCCCn3ccnn3)cc2)co1)/c1cccnc1 [Compound 82, (E)-4-((4-(4-(1H-1,2,3-triazol-1-yl)butyl)phenoxy)methyl)-2-(2-(pyridin-3-yl)vinyl)oxazole] | 100 to 500 | 100 to 500 |
| Fc1ncccc1/C=C/c1nc(COc2ccc(CCCCn3ccnn3)cc2)co1 [Compound 83, (E)-4-((4-(4-(1H-1,2,3-triazol-1-yl)butyl)phenoxy)methyl)-2-(2-(2-fluoropyridin-3-yl)vinyl)oxazole] | 100 to 500 | 500 to 1000 |
| Fc1cccnc1/C=C/c1nc(COc2ccc(CCCCn3ccnn3)cc2)co1 [Compound 85, (E)-4-((4-(4-(1H-1,2,3-triazol-1-yl)butyl)phenoxy)methyl)-2-(2-(3-fluoropyridin-2-yl)vinyl)oxazole] | 1000 to 10000 | 1000 to 10000 |
| CN(C)C(=O)OCCC(=O)NCCCCc1ccc(OCc2coc(/C=C/c3ccc(C(F)(F)F)cc3)n2)cc1 [Compound 87, (E)-3-oxo-3-((4-(4-((2-(4-(trifluoromethyl)styryl)oxazol-4-yl)methoxy)phenyl)butyl)amino)propyl dimethylcarbamate] | 100 to 500 | 500 to 1000 |
| FC(F)(F)c1ccc(/C=C/c2nc(COc3ccc(CCCCn4cncn4)cc3)co2)c(Oc2ccc(CCCCn3cncn3)cc2)c1 [Compound 89, (E)-2-(2-(4-(4-(1H-1,2,4-triazol-1-yl)butyl)phenoxy)-4-(trifluoromethyl)styryl)-4-((4-(4-(1H-1,2,4-triazol-1-yl)butyl)phenoxy)methyl)oxazole] | 1000 to 10000 | 1000 to 10000 |
| Fc1cc(C(F)(F)F)ccc1/C=C/c1nc(COc2ccc(CCCCn3cnnn3)cc2)co1 [Compound 90, (E)-4-((4-(4-(1H-tetrazol-1-yl)butyl)phenoxy)methyl)-2-(2-fluoro-4-(trifluoromethyl)styryl) oxazole] | 100 to 500 | 1000 to 10000 |

Other lines, results leading:

| EC50 [1] [nM] | EC50 [2] [nM] | SMILES |
| --- | --- | --- |
| 100 to 500 | 100 to 500 | [N-]=[N+]=Nc1ccc(/C=C/c2nc(COc3ccc(CCCCn4ccnn4)cc3)co2)c(F)c1 [Compound 67, (E)-4-((4-(4-(1H-1,2,3-triazol-1-yl)butyl)phenoxy)methyl)-2-(4-azido-2-fluorostyryl)oxazole] |
| 100 to 500 | 500 to 1000 | CC(C)NC(=O)OCCc1cn(CCCCc2ccc(OCc3coc(/C=C/c4ccc(C(F)(F)F)cc4)n3)cc2)nn1 [Compound 70, (E)-2-(1-(4-(4-((2-(4-(trifluoromethyl)styryl)oxazol-4-yl)methoxy)phenyl)butyl)-1H-1,2,3-triazol-4-yl)ethyl isopropylcarbamate] |
| < 50 | 100 to 500 | O=S1(=O)CCN(Cc2cn(CCCCc3ccc(OCc4coc(/C=C/c5ccc(C(F)(F)F)cc5F)n4)cc3)nn2)CC1 [Compound 71, (E)-4-((1-(4-(4-((2-(2-fluoro-4-(trifluoromethyl)styryl)oxazol-4-yl)methoxy)phenyl)butyl)-1H-1,2,3-triazol-4-yl)methyl)thiomorpholine 1,1-dioxide] |
| < 50 | 100 to 500 | Fc1ccc2[nH]c(-c3nc(COc4ccc(CCCCn5ccnn5)cc4)co3)cc2c1 [Compound 73] |
| 100 to 500 | 1000 to 10000 | C/C(=C\c1nc(COc2ccc(CCCCn3ccnn3)cc2)co1)c1ccc(C(F)(F)F)cc1 [Compound 74, (E)-4-((4-(4-(1H-1,2,3-triazol-1-yl)butyl)phenoxy)methyl)-2-(2-(4-(trifluoromethyl)phenyl)prop-1-en-1-yl)oxazole] |
| 1000 to 10000 | 1000 to 10000 | FC(F)(F)c1ccc(-c2ccc(COc3ccc(CCCCn4ccnn4)cc3)cn2)cc1 [Compound 75] |
| > 10000 | 1000 to 10000 | O=C(Nc1ccc(C(F)(F)F)cc1[N+](=O)[O-])c1coc(COc2ccc(CCCCn3ccnn3)cc2)n1 [Compound 78, 2-((4-(4-(1H-1,2,3-triazol-1-yl)butyl)phenoxy)methyl)-N-(2-nitro-4-(trifluoromethyl)phenyl)oxazole-4-carboxamide] |
| 1000 to 10000 | 1000 to 10000 | C(=C\c1nc(COc2ccc(CCCCn3ccnn3)cc2)co1)/c1ccccn1 [Compound 84, (E)-4-((4-(4-(1H-1,2,3-triazol-1-yl)butyl)phenoxy)methyl)-2-(2-(pyridin-2-yl)vinyl)oxazole] |
| 100 to 500 | 1000 to 10000 | O=C(CCO)NCCCCc1ccc(OCc2coc(/C=C/c3ccc(C(F)(F)F)cc3)n2)cc1 [Compound 86, (E)-3-hydroxy-N-(4-(4-((2-(4-(trifluoromethyl)styryl)oxazol-4-yl)methoxy)phenyl)butyl) propanamide] |
| 500 to 1000 | 1000 to 10000 | Fc1cc(C(F)(F)F)ccc1/C=C/c1nc(COc2ccc(CCCCn3cncn3)cc2)co1 [Compound 88] |
